Several values for one entry are separate records, joined by “and”; a condition that tells them apart may be missing. Equal entries are not always repeated.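 Values below derive from 48-hour exposures of cells grown in 96-well plates, with endpoints linearly interpolated between the two concentrations bracketing the appropriate inhibition level. Here, GI50 denotes the concentration required for 50% inhibition of growth.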 Activity calls are given as the source filed them. Cut-off read from the data, not from the text of the source: active = GI50 up to about 1.1 µM and inactive = higher.
Tests used:
Test in all cases: DTP human tumour cell line panel, 48 h
786-0 = test system: 786-0
CCRF-CEM = test system: CCRF-CEM
COLO 205 = test system: COLO 205
DMS-114 = test system: DMS-114
DU-145 = test system: DU-145
EKVX = test system: EKVX
HCT-15 = test system: HCT-15
HL-60 = test system: HL-60
HOP-18 = test system: HOP-18
HOP-62 = test system: HOP-62
HOP-92 = test system: HOP-92
Hs-578T = test system: Hs-578T
IGROV-1 = test system: IGROV-1
K562 = test system: K562
KM-20L2 = test system: KM-20L2
M14 = test system: M14
MCF7 = test system: MCF7
MOLT-4 = test system: MOLT-4
NCI/ADR-RES = test system: NCI/ADR-RES
OVCAR-8 = test system: OVCAR-8
PC-3 = test system: PC-3
RPMI-8226 = test system: RPMI-8226
SF-268 = test system: SF-268
SF-295 = test system: SF-295
SF-539 = test system: SF-539
SK-MEL-2 = test system: SK-MEL-2
SK-OV-3 = test system: SK-OV-3
SNB-19 = test system: SNB-19
SNB-75 = test system: SNB-75
SNB-78 = test system: SNB-78
SR = test system: SR
U-251 = test system: U-251
UACC-257 = test system: UACC-257
UACC-62 = test system: UACC-62
A549 = test system: A549
ACHN = test system: ACHN
DLD-1 = test system: DLD-1
HCC 2998 = test system: HCC 2998
HCT-116 = test system: HCT-116
HT-29 = test system: HT-29
KM12 = test system: KM12
LXFL 529 = test system: LXFL 529
M19-MEL = test system: M19-MEL
NCI-H226 = test system: NCI-H226
NCI-H23 = test system: NCI-H23
NCI-H460 = test system: NCI-H460
NCI-H522 = test system: NCI-H522
OVCAR-3 = test system: OVCAR-3
SK-MEL-28 = test system: SK-MEL-28
SK-MEL-5 = test system: SK-MEL-5
SW-620 = test system: SW-620
TK-10 = test system: TK-10
UO-31 = test system: UO-31
A498 = test system: A498
CAKI-1 = test system: CAKI-1
DMS-273 = test system: DMS-273
LOX IMVI = test system: LOX IMVI
OVCAR-4 = test system: OVCAR-4
OVCAR-5 = test system: OVCAR-5
RXF 393 = test system: RXF 393
SN12C = test system: SN12C
BT-549 = test system: BT-549

Cc1ccc(C)c(NC(=O)CC2Sc3ccccc3NC2=O)c1 (stereo not given)
GI50 (786-0): 18.3 µM (inactive) and 25.2 µM (inactive)
GI50 (CCRF-CEM): > 56.2 µM (inactive) and > 86.3 µM (inactive)
GI50 (COLO 205): > 100 µM (inactive)
GI50 (DMS-114): 49.5 µM (inactive) and 30.3 µM (inactive)
GI50 (DU-145): > 100 µM (inactive) and > 74.1 µM (inactive)
GI50 (EKVX): 75.7 µM (inactive) and > 70.5 µM (inactive)
GI50 (HCT-15): 38.7 µM and 61 µM
GI50 (HL-60): > 96.4 µM (inactive) and > 56.2 µM (inactive)
GI50 (HOP-18): 25.1 µM (inactive) and 16.7 µM (inactive)
GI50 (HOP-62): 20.7 µM (inactive) and 17.6 µM (inactive)
GI50 (HOP-92): 19.1 µM (inactive) and 11.9 µM (inactive)
GI50 (Hs-578T): 22.6 µM (inactive)
GI50 (IGROV-1): 20.8 µM (inactive) and 35.7 µM (inactive)
GI50 (K562): > 56.2 µM (inactive) and 68.5 µM (inactive)
GI50 (KM-20L2): > 100 µM (inactive) and > 96.8 µM (inactive)
GI50 (M14): 51.3 µM (inactive)
GI50 (MCF7): > 95.5 µM (inactive) and 62.4 µM (inactive)
GI50 (MOLT-4): > 56.2 µM (inactive) and > 77.3 µM (inactive)
GI50 (NCI/ADR-RES): > 49 µM (inactive)
GI50 (OVCAR-8): 15.5 µM (inactive) and 18.6 µM (inactive)
GI50 (PC-3): > 89.7 µM (inactive) and 79.3 µM (inactive)
GI50 (RPMI-8226): > 100 µM (inactive) and 53 µM (inactive)
GI50 (SF-268): 14.7 µM (inactive) and 26.2 µM (inactive)
GI50 (SF-295): 27.9 µM (inactive) and 50.1 µM (inactive)
GI50 (SF-539): 33.7 µM (inactive) and 29.4 µM (inactive)
GI50 (SK-MEL-2): 30.1 µM (inactive) and 50.8 µM (inactive)
GI50 (SK-OV-3): 21.2 µM (inactive) and 22.7 µM (inactive)
GI50 (SNB-19): 19.8 µM (inactive) and 32.7 µM (inactive)
GI50 (SNB-75): 10.7 µM (inactive) and 10.4 µM (inactive)
GI50 (SNB-78): 14.5 µM (inactive) and 23.1 µM (inactive)
GI50 (SR): > 46.5 µM (inactive) and 27.8 µM (inactive)
GI50 (U-251): 15 µM (inactive) and 27 µM (inactive)
GI50 (UACC-257): 34.2 µM (inactive) and > 67 µM (inactive)
GI50 (UACC-62): 68.9 µM (inactive) and > 85.5 µM (inactive)

Nc1c(C(=O)N/N=C/c2ccccc2)sc(=S)n1-c1ccccc1
GI50 (A549): > 100 µM (inactive)
GI50 (ACHN): > 100 µM (inactive)
GI50 (CCRF-CEM): > 100 µM (inactive)
GI50 (COLO 205): > 100 µM (inactive)
GI50 (DLD-1): > 100 µM (inactive)
GI50 (HCC 2998): > 100 µM (inactive)
GI50 (HCT-116): > 100 µM (inactive)
GI50 (HL-60): > 100 µM (inactive)
GI50 (HOP-18): > 100 µM (inactive)
GI50 (HOP-62): > 100 µM (inactive)
GI50 (HOP-92): > 100 µM (inactive)
GI50 (HT-29): > 100 µM (inactive)
GI50 (IGROV-1): > 100 µM (inactive)
GI50 (K562): 3.38 µM (inactive)
GI50 (KM12): > 100 µM (inactive)
GI50 (LXFL 529): > 100 µM (inactive)
GI50 (M19-MEL): > 100 µM (inactive)
GI50 (MOLT-4): > 100 µM (inactive)
GI50 (NCI-H226): > 100 µM (inactive)
GI50 (NCI-H23): > 100 µM (inactive)
GI50 (NCI-H460): > 100 µM (inactive)
GI50 (NCI-H522): > 100 µM (inactive)
GI50 (OVCAR-3): > 100 µM (inactive)
GI50 (OVCAR-8): > 100 µM (inactive)
GI50 (RPMI-8226): > 100 µM (inactive)
GI50 (SF-268): > 100 µM (inactive)
GI50 (SF-295): > 100 µM (inactive)
GI50 (SF-539): 70 µM (inactive)
GI50 (SK-MEL-28): > 100 µM (inactive)
GI50 (SK-MEL-5): > 100 µM (inactive)
GI50 (SK-OV-3): > 100 µM (inactive)
GI50 (SNB-19): > 100 µM (inactive)
GI50 (SNB-75): 8.71 µM (inactive)
GI50 (SR): > 100 µM (inactive)
GI50 (SW-620): > 100 µM (inactive)
GI50 (TK-10): > 100 µM (inactive)
GI50 (U-251): > 100 µM (inactive)
GI50 (UACC-257): > 100 µM (inactive)
GI50 (UACC-62): > 100 µM (inactive)
GI50 (UO-31): > 100 µM (inactive)

CN(C)CCNC(=O)c1cccc2[nH]c(-c3cccnc3)nc12
GI50 (786-0): 22.9 µM (inactive)
GI50 (A498): 14.2 µM (inactive)
GI50 (A549): 19.8 µM (inactive)
GI50 (ACHN): 16.9 µM (inactive)
GI50 (CAKI-1): 27.6 µM (inactive)
GI50 (CCRF-CEM): 28.4 µM (inactive)
GI50 (COLO 205): 14.5 µM (inactive)
GI50 (DLD-1): 22.2 µM (inactive)
GI50 (DMS-273): 20.7 µM (inactive)
GI50 (EKVX): 22.8 µM (inactive)
GI50 (HCC 2998): 17.1 µM (inactive)
GI50 (HCT-116): 9.55 µM (inactive)
GI50 (HCT-15): 24.8 µM
GI50 (HL-60): 31.5 µM (inactive)
GI50 (HOP-18): 25.2 µM (inactive)
GI50 (HOP-62): 18.5 µM (inactive)
GI50 (HOP-92): 22.6 µM (inactive)
GI50 (HT-29): 27.4 µM (inactive)
GI50 (IGROV-1): 32.5 µM (inactive)
GI50 (K562): 27.9 µM (inactive)
GI50 (KM12): 36.5 µM (inactive)
GI50 (LOX IMVI): 18.1 µM (inactive)
GI50 (M14): 20.9 µM (inactive)
GI50 (M19-MEL): 20.2 µM (inactive)
GI50 (MOLT-4): 25.8 µM (inactive)
GI50 (NCI-H226): 22.4 µM (inactive)
GI50 (NCI-H23): 18.8 µM (inactive)
GI50 (NCI-H460): 19.3 µM (inactive)
GI50 (OVCAR-3): 20.8 µM (inactive)
GI50 (OVCAR-4): 29.3 µM (inactive)
GI50 (OVCAR-5): 28.1 µM (inactive)
GI50 (OVCAR-8): 17.5 µM (inactive)
GI50 (RXF 393): 16.9 µM (inactive)
GI50 (SF-268): 27.9 µM (inactive)
GI50 (SF-295): 30.5 µM (inactive)
GI50 (SF-539): 17.7 µM (inactive)
GI50 (SK-MEL-28): 31.7 µM (inactive)
GI50 (SK-MEL-2): 25.8 µM (inactive)
GI50 (SK-MEL-5): 16.9 µM (inactive)
GI50 (SK-OV-3): 22.6 µM (inactive)
GI50 (SN12C): 18.2 µM (inactive)
GI50 (SNB-19): 28.1 µM (inactive)
GI50 (SNB-75): 20.9 µM (inactive)
GI50 (SNB-78): 35 µM (inactive)
GI50 (SW-620): 12.9 µM (inactive)
GI50 (TK-10): 19.8 µM (inactive)
GI50 (U-251): 22.6 µM (inactive)
GI50 (UACC-257): 18.5 µM (inactive)
GI50 (UACC-62): 18.9 µM (inactive)
GI50 (UO-31): 17.8 µM (inactive)

Oc1cccc2cccnc12 [OXYQUINOLINE]
GI50 (BT-549): > 80.2 µM (inactive)
GI50 (DLD-1): 1.47 µM (inactive)
GI50 (DMS-273): 2.53 µM (inactive)
GI50 (HL-60): 251 nM (active) and 457 nM (active)
GI50 (HOP-18): 14.8 µM (inactive)
GI50 (IGROV-1): 3.14 µM (inactive) and 4.5 µM (inactive)
GI50 (KM-20L2): 1.38 µM (inactive)
GI50 (LXFL 529): 0.605 µM (active)
GI50 (RPMI-8226): 0.578 µM (active)
GI50 (SK-MEL-5): 8.69 µM (inactive) and 4.93 µM (inactive)
GI50 (SR): 0.453 µM (active)
